Results taken from article PMC7473772 (eLife, 2020).
Positions count from the first letter of the chain named. Where “and” joins values, the source holds several entries; their conditions need not be identical. Equal entries are not always repeated.

Columns and labels:
[1] = target: T1, tbaqp1-2-3 null cells expressing TbAQP2 WT or Trp/Met mutants (Trypanosoma brucei brucei, UniProt Q6ZXT3, L118W/L84W); format: cell-based; details: AQP2 mutant L84W/L118W
T1 sequence (Q6ZXT3 1-312 L84W/L118W): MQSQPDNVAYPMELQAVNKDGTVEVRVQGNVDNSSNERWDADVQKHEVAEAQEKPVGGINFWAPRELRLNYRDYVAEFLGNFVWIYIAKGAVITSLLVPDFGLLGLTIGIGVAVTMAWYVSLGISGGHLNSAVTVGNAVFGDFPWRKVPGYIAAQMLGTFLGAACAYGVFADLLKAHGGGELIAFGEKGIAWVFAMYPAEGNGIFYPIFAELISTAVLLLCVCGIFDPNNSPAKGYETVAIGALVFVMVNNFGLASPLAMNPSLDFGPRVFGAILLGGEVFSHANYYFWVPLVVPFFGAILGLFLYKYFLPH

[2] = target: T2, tbaqp1-2-3 null cells expressing TbAQP2 WT or Trp/Met mutants (Trypanosoma brucei brucei, UniProt Q6ZXT3, L218W); format: cell-based; details: AQP2 mutant L218W
T2 sequence (Q6ZXT3 1-312 L218W): T1 sequence (Q6ZXT3 1-312 L84W/L118W) with W84L, W118L, L218W

[3] = target: T3, tbaqp1-2-3 null cells expressing TbAQP2 WT or Trp/Met mutants (Trypanosoma brucei brucei, UniProt Q6ZXT3, L218M); format: cell-based; details: AQP2 mutant L218M
T3 sequence (Q6ZXT3 1-312 L218M): T1 sequence (Q6ZXT3 1-312 L84W/L118W) with W84L, W118L, L218M

[4] = target: T4, tbaqp1-2-3 null cells expressing TbAQP2 WT or Trp/Met mutants (Trypanosoma brucei brucei, UniProt Q6ZXT3, L118W); format: cell-based; details: AQP2 mutant L118W
T4 sequence (Q6ZXT3 1-312 L118W): T1 sequence (Q6ZXT3 1-312 L84W/L118W) with W84L

[5] = target: T5, tbaqp1-2-3 null cells expressing TbAQP2 WT or Trp/Met mutants (Trypanosoma brucei brucei, UniProt Q6ZXT3, L84W); format: cell-based; details: AQP2 mutant L84W
T5 sequence (Q6ZXT3 1-312 L84W): T1 sequence (Q6ZXT3 1-312 L84W/L118W) with W118L

[6] = target: T6, tbaqp1-2-3 null cells expressing TbAQP2 WT or Trp/Met mutants (Trypanosoma brucei brucei, UniProt Q6ZXT3, L118M); format: cell-based; details: AQP2 mutant L118M
T6 sequence (Q6ZXT3 1-312 L118M): T1 sequence (Q6ZXT3 1-312 L84W/L118W) with W84L, W118M

[7] = system: tbaqp1-2-3 null cells expressing TbAQP2 WT or Trp/Met mutants; format: cell-based, Trypanosoma brucei brucei; details: triple KO AQP1-3
[8] = target: T7, tbaqp1-2-3 null cells expressing TbAQP2 WT or Trp/Met mutants (Trypanosoma brucei brucei, UniProt Q6ZXT3, L84M); format: cell-based; details: AQP2 mutant L84M
T7 sequence (Q6ZXT3 1-312 L84M): T1 sequence (Q6ZXT3 1-312 L84W/L118W) with W84M, W118L

[9] = target: tbaqp1-2-3 null cells expressing TbAQP2 WT or Trp/Met mutants (Trypanosoma brucei brucei, UniProt Q6ZXT3); format: cell-based; details: + AQP2 WT

OCC(O)CO [Glycerol]
Glycerol uptake, percent of + AQP2 WT, single replicates [1]: 26.06% of + AQP2 WT and 22.48% of + AQP2 WT and 15.25% of + AQP2 WT | Glycerol uptake, single replicates ([1]; exp HK1560): 4801.50 dpm and 4646.75 dpm and 3099.50 dpm | Glycerol uptake, AVG ([1]; n=3): 4183 dpm | Glycerol uptake, percent of + AQP2 WT, AVG ([1]; n=3): 21.3% of + AQP2 WT | Glycerol uptake, percent of + AQP2 WT, single replicates [2]: 75.79% of + AQP2 WT and 58.22% of + AQP2 WT and 78.07% of + AQP2 WT | Glycerol uptake, single replicates ([2]; exp HK1560): 13962.75 dpm and 12032 dpm and 15866.50 dpm | Glycerol uptake, AVG ([2]; n=3): 13954 dpm | Glycerol uptake, percent of + AQP2 WT, AVG ([2]; n=3): 70.7% of + AQP2 WT | Glycerol uptake, percent of + AQP2 WT, single replicates [3]: 85.78% of + AQP2 WT and 59.96% of + AQP2 WT and 82.90% of + AQP2 WT | Glycerol uptake, single replicates ([3]; exp HK1560): 15802.25 dpm and 12393.00 dpm and 16849.00 dpm | Glycerol uptake, AVG ([3]; n=3): 15015 dpm | Glycerol uptake, percent of + AQP2 WT, AVG ([3]; n=3): 76.2% of + AQP2 WT | Glycerol uptake, percent of + AQP2 WT, single replicates [4]: 36.39% of + AQP2 WT and 32.80% of + AQP2 WT and 32.53% of + AQP2 WT | Glycerol uptake, single replicates ([4]; exp HK1560): 6704.25 dpm and 6779.50 dpm and 6612.25 dpm | Glycerol uptake, AVG ([4]; n=3): 6699 dpm | Glycerol uptake, percent of + AQP2 WT, AVG ([4]; n=3): 33.9% of + AQP2 WT | Glycerol uptake, percent of + AQP2 WT, single replicates [5]: 55.50% of + AQP2 WT and 63.99% of + AQP2 WT and 46.33% of + AQP2 WT | Glycerol uptake, single replicates ([5]; exp HK1560): 10224.8 dpm and 13226.00 dpm and 9416.00 dpm | Glycerol uptake, AVG ([5]; n=3): 10956 dpm | Glycerol uptake, percent of + AQP2 WT, AVG ([5]; n=3): 55.3% of + AQP2 WT | Glycerol uptake, percent of + AQP2 WT, single replicates [6]: 62.48% of + AQP2 WT and 49.85% of + AQP2 WT | Glycerol uptake, single replicates ([6]; exp HK1560): 11510.33 dpm and 10303.00 dpm | Glycerol uptake, percent of + AQP2 WT, AVG ([6]; n=2): 56.2% of + AQP2 WT | Glycerol uptake, percent of + AQP2 WT, single replicates [7]: 18.67% of + AQP2 WT and 17.85% of + AQP2 WT and 11.96% of + AQP2 WT | Glycerol uptake, single replicates ([7]; exp HK1560): 3439.75 dpm and 3689.75 dpm and 2430 dpm | Glycerol uptake, AVG ([7]; n=3): 3187 dpm | Glycerol uptake, percent of + AQP2 WT, AVG ([7]; n=3): 16.2% of + AQP2 WT | Glycerol uptake, percent of + AQP2 WT, single replicates [8]: 71.54% of + AQP2 WT and 78.57% of + AQP2 WT and 85.30% of + AQP2 WT | Glycerol uptake, single replicates ([8]; exp HK1560): 13178.67 dpm and 16239.50 dpm and 17336.50 dpm | Glycerol uptake, AVG ([8]; n=3): 15585 dpm | Glycerol uptake, percent of + AQP2 WT, AVG ([8]; n=3): 78.5% of + AQP2 WT | Glycerol uptake, percent of + AQP2 WT, single replicates [9]: 100.00% of + AQP2 WT | Glycerol uptake, percent of + AQP2 WT, AVG ([9]; n=3): 100.0% of + AQP2 WT
